The values below come from US4010258A, “Microbial amylase inhibitor and preparation thereof with the use of streptomyces diasticus var. amylostaticus” (Ajinomoto Co., Inc., priority 1974, dated 1977).

One data set concerns amylase. The note with it: prior art statement; cited from earlier work.
In another data set the test system is trypsin. Description: Action of various proteases on Amylostatin-A. It counts as in vitro ADME.
Another data set deals with chymotrypsin (Bos taurus, UniProt P00766). Description: Action of various proteases on Amylostatin-A. The class given is in vitro ADME.
The target of another data set is T1, papain (Carica papaya, UniProt P00784).
T1 sequence (P00784 134-345): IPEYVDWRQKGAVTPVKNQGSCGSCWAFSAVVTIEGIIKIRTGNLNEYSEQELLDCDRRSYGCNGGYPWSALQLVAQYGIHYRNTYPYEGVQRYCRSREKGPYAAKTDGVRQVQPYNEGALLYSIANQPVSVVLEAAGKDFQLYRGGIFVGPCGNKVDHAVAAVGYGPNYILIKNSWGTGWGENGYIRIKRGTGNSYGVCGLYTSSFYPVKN
Description: Action of various proteases on Amylostatin-A. It counts as in vitro ADME.

The next data set has as its target pepsin (Sus scrofa, UniProt P00791). Description: Action of various proteases on Amylostatin-A. It counts as in vitro ADME.
A short description of data set [1]: Stability in buffer solution (pH and heat). It counts as physicochemical.
A further data set is described as follows: Solubility. It counts as physicochemical.
In data set [2] the test system is digestion and absorption of starch. Put plainly: Biological test on digestibility of starch. It counts as in vivo, male rats of Wistar strain. The note with it: rats, 4 hours. On the procedure: An experiment concerning the inhibitory effect of Amylostatin-A on the digestion and absorption of starch in vivo was carried out using sound male rats of Wistar strain weighing from 250 to 300g. After they had been made to fast, receiving only water for 48 hours, 60 rats were selected and divided into 10 groups of each 5 or 10 as shown in Table 4.
Rats in control groups were given either 2.5 ml of an isotonic sodium chloride solution in which 300 mg of soluble starch (Wako Junyaku Co., Inc.) was dissolved or 2.5 ml of an isotonic sodium chloride solution in which 300 mg of corn starch (Japanese Pharmacopia) was suspended. The rats were subjected to a laparotomy, the solution was injected into the stomach and the incision site was sutured. Rats in test groups were given the same amount and kinds of solutions as given to the rats in control groups except that varying amounts of crude Amylostatin-A obtained according to the methods of Example 1 were added as shown in Table 4. The test solutions were administered in the same manner as the control solutions.
After the lapse of definite periods of time, all rats were again laparotomized at the site of the original incision and all contents of the stomach and small intestines were removed by washing with an isotonic sodium chloride solution. To these washings containing residual starch, 25 ml of 1N hydrochloric acid was added. The mixture was heated to carry the hydrolytic reaction to completion and the quantity of reducing sugar formed was determined by Somogyi's method.

The subject of data set [3] is bacterial α-amylase (crystalline). Put plainly: Assay of amylase inhibitory activity (units). The class given is biochemical. Conditions: purified powdery preparation, Example 1. How it is done:
The reaction mixture consisting of 4 ml of a 1.5% soluble starch solution in 0.1M acetate buffer solution at pH 5.5, 0.5 ml of distilled water and 0.5 ml of the amylase solution to be assayed (amylase or bacterial α-amylase (crystalline) ) is incubated at 37° C. for 10 minutes and the reaction is terminated by adding a mixture of 5:1 by volume of 0.5N acetic acid and 0.5N hydrochloric acid. From this solution, 0.2 ml is withdrawn and added to 5 ml of N/3000 iodine solution and the absorbency is measured at 660 nm. The amylase activity per one ml of the enzyme solution expressed in units is calculated as follows: [formula] in which D is the optical density of the enzyme solution and Do is the optical density of the control.
The reaction mixture consisting of 0.5 ml of 2 × 10^^-4 % of bacterial α-amylase (crystalline) and 0.5 ml of the solution of Amylostatin-A is incubated at 37° C. for 10 minutes. Any residual amylase activity is determined according to the method of assay of amylase activity described above. One unit of amylase inhibitory activity is defined as the amount of inhibitory activity necessary to inactivate one unit of amylase.

Chain of pepsin (P00791 60-385): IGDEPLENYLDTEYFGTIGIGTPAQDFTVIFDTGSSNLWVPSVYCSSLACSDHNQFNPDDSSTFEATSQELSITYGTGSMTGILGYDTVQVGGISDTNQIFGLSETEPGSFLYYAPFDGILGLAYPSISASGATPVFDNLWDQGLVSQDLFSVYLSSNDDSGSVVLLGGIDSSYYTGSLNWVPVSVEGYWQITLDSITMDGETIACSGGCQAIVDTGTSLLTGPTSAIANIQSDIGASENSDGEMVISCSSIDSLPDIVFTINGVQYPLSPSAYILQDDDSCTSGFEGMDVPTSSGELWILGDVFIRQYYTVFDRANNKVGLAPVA

Regarding `OC[C@H]1NC(O)[C@H](O)[C@@H](O)[C@@H]1O` (stereo partly shown) [Nojirimycin], the amylase inhibitory activities entry in the data set on amylase is “extremely low”.

With Amylostatin-A, the “inactivation of the inhibitory activity on amylase by protease” value with trypsin, at chymotrypsin, on papain and on pepsin was “unable to inactivate” each time. The Stability entry in [1] (buffer solution, pH 1 to 12, 37° C. for 12 hours) is reported as “substantial stability”; in data set [1] (heated at 100° C. for 30 minutes, pH 1 to 12), “substantial stability”. Also, the Solubility result is “substantially insoluble” in the data set “Solubility” (acetone); “substantially insoluble” in the data set “Solubility” (chloroform); “substantially insoluble” in the data set “Solubility” (ethanol); “substantially insoluble” in the data set “Solubility” (methanol); “soluble” in “Solubility” (pyridine); “soluble” in “Solubility” (water). The “residual % of starch (average)” value came to 82.5% in [2] (300 mg cornstarch into the stomach, 2.5 mg crude Amylostatin-A added); 93.6% in [2] (300 mg cornstarch into the stomach, 5 mg crude Amylostatin-A added); 92.5% in [2] (300 mg cornstarch into the stomach, 10 mg crude Amylostatin-A added); 63.8% in [2] (300 mg soluble starch (dissolved on heating) into the stomach, 5 mg crude Amylostatin-A added); 65.7% in data set [2] (300 mg soluble starch (dissolved on heating) into the stomach, 10 mg crude Amylostatin-A added). For the same molecule, the amylase inhibitory activity in [3] is reported as 3.5 × 10^4 units per mg.
